Measured values from patent US9927437B2, “Treating neurodegenerative disease” (THE BRIGHAM AND WOMEN'S HOSPITAL, INC., priority 2013, dated 2018).

Key:
IRF-1 = IRF-1 translocation to the nucleus in astrocytes (western blot); type: cell-based, mouse; conditions: primary astrocytes, PDMP 25 μM or LacCer 10 μM, LPS/IFNγ 45 min
T cells = experiment: T-cell response in EAE mice (recall proliferation, cytokines, polarization); type: in vivo, mouse
Description: FIGS. 9a-d. Depletion of reactive astrocytes reduces the recruitment of peripheral leukocytes to the CNS. (a-d). EAE was induced in WT or GFAP^TK F1 hybrid mice and Ganciclovir (GCV) or vehicle control (PBS) was administered as in FIG. 1b. Data are representative of three independent experiments with n≥7 mice/group (means and s.e.m.). (a) Effect of GCV administration on reactive astrocytes detected by GFAP staining (b) Recruitment of monocytes (red gate) and lymphocytes (green gate) to the CNS assessed by FACS. Data are representative of three independent experiments. Statistical analysis by Student's t-test. (c, d) Effect of the depletion of reactive astrocytes during the chronic phase of EAE on the recall proliferative response to MOG(35-55) or anti-CD3 (c) and the expression of IFN-γ, IL-17A, Foxp3 and IL-10 in splenic CD4+ T cells (d). *P<0.05, and (n.s) not significant.
FIGS. 12a-i. […] (a) Naïve C57BL/6 (Left panel) and NOD (right panel) mice were treated with LacCer (10 μg per mouse) or vehicle as indicated by red arrows, and EAE clinical scores was recorded. At experimental end point (day 25), astrocytes were isolated and their transcriptional profile was determined by nCounter Nanostring analysis. (b-e) EAE was induced in C57BL/6 (b, c) or NOD mice (d, e) and LacCer or vehicle were administrated as in FIGS. 1g and 1h, respectively. Splenic T-cell recall response to MOG(35-55) (20 μg/ml); proliferation (b, d) and secretion of IL-17A, IFN-γ and IL-10 cytokines (c, e). Data are representative of two independent experiments with ≥8 mice/group (mean and s.e.m.). (f-i) EAE NOD mice were treated with PDMP or vehicle during the chronic phase as in FIG. 1K. Data are representative of three independent experiments with n≥8 mice/group (mean and s.e.m.). (f) qPCR analysis of the expression of tbx21, ifng, rorc, il17A, csf2, il10, foxp3, and tgfb1 mRNA of CD3^+CD4^+ T-cells isolated from the CNS; expression is presented relative to gapdh. (g, h) Recall response to MOG(35-55) (20 μg/ml); proliferation (g) and secretion of IL-17A, IFN-γ and IL-10 cytokines (h). (i) Expression of IFN-γ, IL-17A, Foxp3 and IL-10 by splenic CD3^+CD4^+ T cells (mean and s.e.m.).
Splenocytes and lymph node cells were cultured in X-VIVO medium and were plated for 72 h at a density of 5×10^5 cells per well in the presence of MOG35-55 peptide. During the final 16 h, cells were pulsed with […] [3H]thymidine (PerkinElmer), followed by collection on glass fiber filters and analysis of incorporated [3H]thymidine in a-counter (1450 MicroBeta TriLux; PerkinElmer). Supernatants were collect after 48 h of culture for cytokine measurement by enzyme-linked immunosorbent assay^14. For intracellular cytokine staining, cells were stimulated for 6 h with PMA (phorbol 12-myristate 13-acetate; 50 ng/ml; Sigma), ionomycin (1 μg/ml; Sigma) and monensin (GolgiStop; […]; BD Biosciences). After staining of surface markers, cells were fixed and made permeable according to the manufacturer's instructions BD Cytofix/Cytoperm™ Kit (BD Biosciences), or Foxp3 Fixation/Permeabilization (Ebiosceince).

B4GALT5/6 = experiment: Quantification of LacCer levels in the CNS (LC-MS/MS); type: in vivo, mouse; conditions: NOD EAE
Description: Chemical standards of LacCer (d18:1/16:0) and LacCer (d18:1/18:0) were obtained from Avanti Polar Lipids. Quantification of LacCer (d18:1/16:0) and LacCer (d18:1/18:0) was achieved by LC-MS/MS analysis performed on an Agilent (Agilent Technologies, Santa Clara, Calif.) 6460 triple-quadrupole LC/MS/MS system. The fragments from the [M+H]^+ ions for LacCer and internal standard were subjected to collision induced dissociation and the two major types of fragment ions were monitored via electrospray ionization in the positive ion mode in multiple reaction monitoring (MRM) mode for each ion. These two MRM transitions corresponded to the loss of the neutral lactosyl moiety, and to the formation of the lactose ion. Specifically, the MRM transitions used for quantification for LacCer (d18:1/16:0) and LacCer(d18:1/18:0) were 862.5>[…] and 890.6>548.5, respectively. Secondary confirmatory MRM transitions for LacCer(d18:1/16:0) and LacCer(d18:1/18:0) of 862.5>264.3 and 890.6>264.3 were also monitored. Mass spectrometer parameter settings were gas temp (325° C.), gas flow (12 L/min), nebulizer (25 psi), sheath gas temp (400° C.), sheath gas flow (12 L/min), capillary voltage (4000v), and nozzle voltage (500v). Liquid chromatography conditions with an a Phenomenex Gemini C18 column 4.6×50 mm 5 μm particle size was used for separation. Chromatography method the following flow rate=0.4 mLs/min; solvent A=5 mM ammonium formate in 5% MeOH and 0.1% formic acid v/v/v; solvent B=80% 2-propanol, 15% methanol, 5% water and 0.1% formic acid (v/v/v/v). […] Standard curve mixture was analyzed at various concentrations between 0.10 nM to 3.3 μM in LacCer (d18:1/16:0) and an internal standard concentration of 1 μM. The lower limit of quantification was estimated at 1 nM and a R^2 of 0.9969 was obtained using linear regression analysis. […]
The brain tissue was weighed and homogenized using a Dounce homogenizer (VWR), in the extraction solvent using a Bligh and Dyer type liquid-liquid extraction. […] The dried sample was reconstituted in 100 μl of 2:1 chloroform-methanol, and analyzed using the HPLC-MS.

Compound | translocation of IRF-1 to the nucleus (IRF-1) | T-cell response (T cells; NOD EAE, PDMP-treated mice, chronic phase) | CNS LacCer levels (B4GALT5/6; 20 mg/kg twice a day from day 40) | T-cell response (T cells; C57BL/6 and NOD EAE after LacCer administration) | CNS LacCer levels (B4GALT5/6; i.c.v. 1×10^7 IU lentivirus at day 35, 10 days after injection)
CCCCCCCCCC(=O)N[C@H](CN1CCOCC1)[C@H](O)c1ccccc1 [PDMP, D-threo-1-phenyl-2-decanoylamino-3-morpholino-1-propanol] | interfered with this process | No significant changes | significant decrease | – | –
lactosylceramide [LacCer] | enhanced the translocation of IRF-1 to the nucleus | – | – | not linked to changes in the T-cell response | –
shB4galt6: lentivirus-delivered shRNA against b4galt6 (TRCN0000334278; SEQ ID NO:3) (guide CGATGGACTGAACAATTTATTCTCGAGAATAAATTGTTCAGTCCACG) | – | – | – | – | significant decrease
